Data reported in patent US6635479B1, “Hypothalamus-specific polypeptides” (The Scripps Research Institute, priority 1996, dated 2003).
Ends that are not written are not given here.

What was measured:
[1] = tested on: synaptically-coupled rat hypothalamic neurons; experiment: voltage clamp recording of postsynaptic currents in cultured hypothalamic neurons; assay type: cell-based
Procedure: To test this hypothesis, 10-day cultures of synaptically-coupled rat hypothalamic neurons were prepared and postsynaptic currents were recorded under voltage clamp.
Rat hypothalamus from 18-day embryos was cultured for 10 days in vitro. The mediobasal hypothalamus was removed from embryonic day 18 Sprague Dawley rats. The tissue was enzymatically digested in a mild protease solution (10 U/ml papain and 0.2 mg/ml L-cysteine in Earle's balanced salt solution) for 30 minutes. Next, the tissue was pelleted, and the protease solution was removed. Tissue was then suspended in standard tissue culture medium (glutamate- and […] DMEM supplemented with 10% fetal bovine serum, 100 U/ml penicillin/streptomycin, and 6 gm/l glucose) and then triturated into a single-cell suspension. Cells were washed and pelleted an additional three times. The single-cell suspension was plated onto 22 mm^2 glass coverslips that had been coated with high-molecular-weight (540,000 Da) poly-D-lysine. High-density cultures (200,000/cm^2) were used for all experiments. Hypothalamic neural cultures were maintained in a Napco 3600 incubator (37 degree Celsius and 5% CO2) until they were ready for use. To limit non-neuronal cell proliferation cytosine arabinofuranoside (1 μM) was added to the tissue culture medium 1 day after plating.
Synaptically coupled hypothalamic neurons were recorded in voltage clamp with a whole cell pipette (holding potential=−60 mV). This recording is typical of 9 of 12 cells examined under these conditions. […] Inset boxes show higher resolution of the events indicated by the dotted line. Both boxes (in FIGS. 7A and B) were recorded with an identical delay after hcrt2 administration. A less mature hypothalamic neuron after 4 days of culture was unresponsive to 1 μM hcrt2 (FIG. 7B). Pipette solution contained 128 mM KMeSO4, 27 mM KCl, 0.4 mM EGTA, 1 mM ATP, and 0.5 mM GTP.

[2] = tested on: synaptically coupled hippocampal dentate granule neurons in culture; experiment: voltage clamp recording in cultured hippocampal dentate granule neurons; assay type: cell-based
[3] = body temperature by telemetry after intracerebroventricular infusion; assay type: in vivo, rats
Procedure: (§1) Synthetic, amidated hcrt2 peptide at different concentrations was infused intracerebroventricularly in rats and body temperature by was monitored telemetry. Stereotactic ablation studies have previously implicated the dorsal-lateral hypothalamus in feeding behavior, blood pressure, and central regulation of immune function, although precise nuclei have not been correlated with these activities. A threshold-type response was obtained in which, at the highest dose, 10 μg, body temperature dropped from 37.7 to 36.7 degrees Celsius over 30 minutes following administration, then recovered to normal over 2 hours. Food intake was monitored over 2 hours following administration and a 40% reduction in food intake was measured at a dose of 5 μg. […] The presumed target cells of hypocretin may not be very accessible by this unphysiological mode of administration. Local injection or intravenous administration of hypocretin might be more suitable for physiological studies.

[4] = food intake after intracerebroventricular infusion; assay type: in vivo, rats; conditions: 5 μg ICV; monitored over 2 hours following administration
Procedure: as §1

[5] = 1 μM applied to bath, 10 days in vitro, holding potential −60 mV
[6] = 1 μM, 10-day cultures, voltage clamp

For “hcrt2: synthetic peptide corresponding to amidated hcrt2; preprohypocretin residues about 70 to 96 (SEQ ID NO:10; unamidated form SEQ ID NO:9) (PGPPGLQGRLQRLLQANGNHAAGILTM-NH2)”, the “cells showing the typical recording (increased PSC frequency)” value [1, 5] was 9 of 12, the “increase in frequency of postsynaptic events (PSCs)” value [1, 5] was ≤ 400% and the “cells showing no response” value [1, 6] was 25%. The “neurons tested showing substantial, reversible increase in the frequency of postsynaptic currents” value [1, 6] was 75%, the “response of less mature hypothalamic neuron after 4 days of culture” value ([1]; 1 μM, 4 days of culture (FIG. 7B)) was “unresponsive” and the “frequency of PSCs after washout of the peptide” value ([1]; after washout of 1 μM) was “returned to normal baseline levels”. For the same substance, the “electrical responses in voltage clamp experiments (FIGS. 7A-7B legend)” value ([1]; application of 1 μg, isolated in vitro rat hypothalamic cells) was “produced electrical responses in adult but not immature neurons”, the “response of hypothalamic neurons in culture for only 3-5 days” value ([1]; neurons 3-5 days in culture) was “little response” and the “response of hippocampal dentate granule neurons” value [2] was “no response”. For the same substance, the “body temperature after administration” value ([3]; 10 μg (highest dose) ICV, dropped from 37.7 over 30 minutes) was 36.7 degrees Celsius, the “time to recovery of body temperature to normal” value ([3]; 10 μg ICV) was 2 h and the “reduction in food intake” value [4] was 40%.
